18 compounds from EP0054898A1, “Formamidine derivatives, preparation and use thereof, pharmaceutical compositions containing them and their preparation” (HOECHST AKTIENGESELLSCHAFT, priority 1980, dated 1982) can be followed below.

The subject of one data set is Serum-Lipoproteine. Briefly: Effect on serum lipoproteins (cholesterol in serum and in ultracentrifuge fractions) in rats after 7 days of oral treatment. The class given is in vivo, männlichen Wistar-Ratten. The following applies: Dosis 1 mg/kg/Tag, oral (gavage), 7 days, pooled serum. From the text: Die Wirkung der angeführten Verbindungen auf die Serum- Lipoproteine wurde an männlichen Wistar-Ratten untersucht, die 7 Tage per Schlundsonde mit den angeführten in Polyäthylenglykol 400 suspendierten Verbindungen behandelt wurden. Außerdem wurde eine Kontrollgruppe, die nur das Lösungsmittel Polyäthylenglykol 400 erhielt, mitgeführt, sowie eine Ratten-Gruppe, die zum Vergleich das Standardhypolipidämikum Clofibrat, ebenfalls in Polyäthylenglykol 400 gelöst, erhielt. Pro Gruppe wurden in der Regel 10 Tiere eingesetzt, denen am Ende der Behandlung das Blut nach leichter Äthernakose aus dem Orbitalplexus entnommen wurde. Das daraus gewonnene Serum wurde gepoolt. Die Serum- Lipoproteine wurden in der Ultrazentrifuge in folgende Dichteklassen getrennt: • VLDL 1,006; LDL 1,006 bis 1,04; HDL 1,04 bis 1,21.
Aus den in der Ultrazentrifuge isolierten LipoproteinFraktionen wurde das darin enthaltene Choletserin vollenzymatisch nach der CHOD-PAP-Methode mittels der Testkombination von Boehringer Mannheim bestimmt und die Werte in ug/ml Serum umgerechnet. In der angeführten Tabelle (S.8) ist die Veränderung des Lipoprotein-Cholesterins in der behandelten Gruppe gegenüber einer unter gleichen Bedingungen mitgeführten Kontrollgruppe angegeben.
% Veränderung der Lipoproteine in Ratten-Serum nach siebentägiger oraler Behandlung mit den Verbindungen
As to `CN(C#N)C=Nc1ccc(Oc2ccc(Cl)cc2)c(Cl)c1` [Beispiel 50], the “% Veränderung des Cholesterins gegenüber Kontrolle in der Serum-Lipoprotein-Fraktion VLDL” value was “+3%”.

The same data set, now with this note: Dosis 3 mg/kg/Tag, oral (gavage), 7 days, pooled serum.
As for `CCCCN(C=Nc1ccc(Sc2ccccc2)cc1)S(=O)(=O)c1ccc(C)cc1` [Beispiel 27], the “% Veränderung des Cholesterins gegenüber Kontrolle im Serum” value is given as -18%, the “% Veränderung des Cholesterins gegenüber Kontrolle in der Serum-Lipoprotein-Fraktion HDL” value was -2%, the “% Veränderung des Cholesterins gegenüber Kontrolle in der Serum-Lipoprotein-Fraktion LDL” value is reported as -50% and the “% Veränderung des Cholesterins gegenüber Kontrolle in der Serum-Lipoprotein-Fraktion VLDL” value is -13%.

On to `Cc1ccc(S(=O)(=O)N(C=Nc2ccc(Sc3ccccc3)cc2)C(C)C)cc1` [Beispiel 28], for which the “% Veränderung des Cholesterins gegenüber Kontrolle im Serum” value is -5%, the “% Veränderung des Cholesterins gegenüber Kontrolle in der Serum-Lipoprotein-Fraktion HDL” value is listed as “+2%”, the “% Veränderung des Cholesterins gegenüber Kontrolle in der Serum-Lipoprotein-Fraktion LDL” value is listed as -25% and the “% Veränderung des Cholesterins gegenüber Kontrolle in der Serum-Lipoprotein-Fraktion VLDL” value was -5%.

For the compound `Cc1ccc(S(=O)(=O)N(C)C=Nc2ccc(Cl)cc2C(F)(F)F)cc1` [Beispiel 39], the “% Veränderung des Cholesterins gegenüber Kontrolle im Serum” value is -3%, the “% Veränderung des Cholesterins gegenüber Kontrolle in der Serum-Lipoprotein-Fraktion HDL” value was -7%, the “% Veränderung des Cholesterins gegenüber Kontrolle in der Serum-Lipoprotein-Fraktion LDL” value is reported as -26% and the “% Veränderung des Cholesterins gegenüber Kontrolle in der Serum-Lipoprotein-Fraktion VLDL” value is -26%.

For `CN(C#N)C=Nc1ccc(Oc2ccccc2)cc1` [Beispiel 48], the “% Veränderung des Cholesterins gegenüber Kontrolle im Serum” value is reported as -8%, the “% Veränderung des Cholesterins gegenüber Kontrolle in der Serum-Lipoprotein-Fraktion HDL” value was -2% and the “% Veränderung des Cholesterins gegenüber Kontrolle in der Serum-Lipoprotein-Fraktion LDL” value is -56%.

Turning to `CN(C#N)C=Nc1ccc(Oc2ccc(Cl)cc2Cl)cc1` [Beispiel 49], the “% Veränderung des Cholesterins gegenüber Kontrolle im Serum” value is recorded as “+2%”, the “% Veränderung des Cholesterins gegenüber Kontrolle in der Serum-Lipoprotein-Fraktion HDL” value is listed as “+2%” and the “% Veränderung des Cholesterins gegenüber Kontrolle in der Serum-Lipoprotein-Fraktion LDL” value is -48%.

The data set is the same for the next values; noted with them: Dosis 10 mg/kg/Tag, oral (gavage), 7 days, pooled serum.
With `Cc1ccc(S(=O)(=O)N(C=Nc2ccc(Oc3ccccc3)cc2)Cc2ccccc2)cc1` [Beispiel 2], the “% Veränderung des Cholesterins gegenüber Kontrolle im Serum” value is listed as -4%, the “% Veränderung des Cholesterins gegenüber Kontrolle in der Serum-Lipoprotein-Fraktion HDL” value was “+3%”, the “% Veränderung des Cholesterins gegenüber Kontrolle in der Serum-Lipoprotein-Fraktion LDL” value is listed as -22% and the “% Veränderung des Cholesterins gegenüber Kontrolle in der Serum-Lipoprotein-Fraktion VLDL” value is recorded as -50%.

On to `CCCN(C=Nc1ccc(Oc2ccccc2)cc1)S(=O)(=O)c1ccc(C)cc1` [Beispiel 3], for which the “% Veränderung des Cholesterins gegenüber Kontrolle im Serum” value was -5%, the “% Veränderung des Cholesterins gegenüber Kontrolle in der Serum-Lipoprotein-Fraktion HDL” value is on record as “+8%”, the “% Veränderung des Cholesterins gegenüber Kontrolle in der Serum-Lipoprotein-Fraktion LDL” value is listed as -22% and the “% Veränderung des Cholesterins gegenüber Kontrolle in der Serum-Lipoprotein-Fraktion VLDL” value is -32%.

With `C#CCN(C=Nc1ccc(Oc2ccccc2)cc1)S(=O)(=O)c1ccc(C)cc1` [Beispiel 7], the “% Veränderung des Cholesterins gegenüber Kontrolle im Serum” value is on record as -1%, the “% Veränderung des Cholesterins gegenüber Kontrolle in der Serum-Lipoprotein-Fraktion HDL” value is recorded as “+5%”, the “% Veränderung des Cholesterins gegenüber Kontrolle in der Serum-Lipoprotein-Fraktion LDL” value is -22% and the “% Veränderung des Cholesterins gegenüber Kontrolle in der Serum-Lipoprotein-Fraktion VLDL” value is -51%.

For `Cc1ccc(S(=O)(=O)N(C)C=Nc2ccc(Oc3ccccc3)cc2)cc1` [Beispiel 12], the “% Veränderung des Cholesterins gegenüber Kontrolle im Serum” value is listed as -6%, the “% Veränderung des Cholesterins gegenüber Kontrolle in der Serum-Lipoprotein-Fraktion HDL” value is -1%, the “% Veränderung des Cholesterins gegenüber Kontrolle in der Serum-Lipoprotein-Fraktion LDL” value was -42% and the “% Veränderung des Cholesterins gegenüber Kontrolle in der Serum-Lipoprotein-Fraktion VLDL” value is -70%.

Consider `Cc1ccc(S(=O)(=O)N(C)C=Nc2ccc(Oc3ccc(Cl)cc3Cl)cc2)cc1` [Beispiel 13], for which the “% Veränderung des Cholesterins gegenüber Kontrolle im Serum” value is recorded as -6%, the “% Veränderung des Cholesterins gegenüber Kontrolle in der Serum-Lipoprotein-Fraktion HDL” value was “+1%”, the “% Veränderung des Cholesterins gegenüber Kontrolle in der Serum-Lipoprotein-Fraktion LDL” value is on record as -39% and the “% Veränderung des Cholesterins gegenüber Kontrolle in der Serum-Lipoprotein-Fraktion VLDL” value was -100%.

Take `Cc1ccc(S(=O)(=O)N(C)C=Nc2ccc(Sc3ccccc3)cc2)cc1` [Beispiel 25]: the “% Veränderung des Cholesterins gegenüber Kontrolle im Serum” value is -5%, the “% Veränderung des Cholesterins gegenüber Kontrolle in der Serum-Lipoprotein-Fraktion HDL” value is listed as “+5%”, the “% Veränderung des Cholesterins gegenüber Kontrolle in der Serum-Lipoprotein-Fraktion LDL” value is given as -45% and the “% Veränderung des Cholesterins gegenüber Kontrolle in der Serum-Lipoprotein-Fraktion VLDL” value is -70%.

Take `CCN(C=Nc1ccc(Sc2ccccc2)cc1)S(=O)(=O)c1ccc(C)cc1` [Beispiel 30]: the “% Veränderung des Cholesterins gegenüber Kontrolle im Serum” value is recorded as -3%, the “% Veränderung des Cholesterins gegenüber Kontrolle in der Serum-Lipoprotein-Fraktion HDL” value is given as -1% and the “% Veränderung des Cholesterins gegenüber Kontrolle in der Serum-Lipoprotein-Fraktion LDL” value is listed as -27%.

As for `Cc1ccc(S(=O)(=O)N(C)C=Nc2c(C)cc(C)cc2C)cc1` [Beispiel 34], the “% Veränderung des Cholesterins gegenüber Kontrolle im Serum” value is “+10%”, the “% Veränderung des Cholesterins gegenüber Kontrolle in der Serum-Lipoprotein-Fraktion HDL” value is listed as “+14%” and the “% Veränderung des Cholesterins gegenüber Kontrolle in der Serum-Lipoprotein-Fraktion LDL” value is given as -36%.

Consider `Cc1ccc(S(=O)(=O)N(C)C=Nc2cc(C(F)(F)F)cc(C(F)(F)F)c2)cc1` [Beispiel 36], for which the “% Veränderung des Cholesterins gegenüber Kontrolle im Serum” value was -2%.

On to `Cc1ccc(S(=O)(=O)N(C)C=Nc2ccccc2C)cc1` [Beispiel 37], for which the “% Veränderung des Cholesterins gegenüber Kontrolle im Serum” value is -8%, the “% Veränderung des Cholesterins gegenüber Kontrolle in der Serum-Lipoprotein-Fraktion HDL” value is recorded as “+3%” and the “% Veränderung des Cholesterins gegenüber Kontrolle in der Serum-Lipoprotein-Fraktion LDL” value was -51%.

As for `Cc1ccc(S(=O)(=O)N(C)C=Nc2ccc(Cl)cc2C)cc1` [Beispiel 38], the “% Veränderung des Cholesterins gegenüber Kontrolle im Serum” value is on record as -8%, the “% Veränderung des Cholesterins gegenüber Kontrolle in der Serum-Lipoprotein-Fraktion HDL” value was “+2%”, the “% Veränderung des Cholesterins gegenüber Kontrolle in der Serum-Lipoprotein-Fraktion LDL” value is given as -36% and the “% Veränderung des Cholesterins gegenüber Kontrolle in der Serum-Lipoprotein-Fraktion VLDL” value is reported as -30%.

Staying with this data set, now noted: Dosis 100 mg/kg/Tag, oral (gavage), 7 days, pooled serum.
With `CCOC(=O)C(C)(C)Oc1ccc(Cl)cc1` [Clofibrat, reference compound], the “% Veränderung des Cholesterins gegenüber Kontrolle im Serum” value was -24%, the “% Veränderung des Cholesterins gegenüber Kontrolle in der Serum-Lipoprotein-Fraktion HDL” value is reported as -33%, the “% Veränderung des Cholesterins gegenüber Kontrolle in der Serum-Lipoprotein-Fraktion LDL” value is on record as -25% and the “% Veränderung des Cholesterins gegenüber Kontrolle in der Serum-Lipoprotein-Fraktion VLDL” value is on record as -30%.

Staying with this data set, now noted: summary in words of the table, 7 days oral.
For `CCOC(=O)C(C)(C)Oc1ccc(Cl)cc1` [Clofibrat, reference compound], the “Wirkung auf die Lipoproteinfraktionen (VLDL, LDL, HDL)” value is reported as “etwa gleichstarke Senkung der LDL-Fraktion und der HDL-Fraktion”.

System in another data set: not listed separately
Briefly: Relative liver weight. The data set is classed as in vivo. The following applies: in wirksamer Dosis; result in words. The text has this:
Es ist allgemein anerkannt, daß für die Entstehung artericsklerotischer Gefäßveränderungen, insbesondere der coronaren Herzkrankheit, Hyperlipoproteinämien einen wesentlichen Risikofaktor darstellen. Für die Prophylaxe und die Regression von atherosklerotischen Veränderungen kommt daher der Senkung erhöhter Serum-Lipoproteine eine außerordentliche Bedeutung zu. Hierbei kommt es aber auf ganz bestimmte Klassen von Serum-Lipoproteinen an, da die low density (LDL) und very low density-Lipoproteine (VLDL) einen atherogenen Risikofaktor darstellen, während die high density-Lipoproteine (HDL) eine Schutzfunktion gegenüber der coronaren Herzkrankheit darstellen. Hypolipidämika sollen demnach VLDL-Cholesterin und LDL-Cholesterin im Serum erniedrigen, dabei aber die HDL-Cholesterin-Konzentration nach Möglichkeit unbeeinflußt lassen oder sogar erhöhen. Die erfindungsgemäßen Verbindungen haben wertvolle therapeutische Eigenschaften. So erniedrigen sie vor allem die Konzentration von LDL und VLDL, während die HDL-Fraktion entweder in wesentlich geringerem Maße erniedrigt, oder sogar erhöht wird..Sie können daher zur Prophylaxe und Regression von atherosklerotischen Veränderungen herangezogen werden, indem sie einen kausalen Risikofaktor ausschalten. Hierzu zählen nicht nur die primären Hyperlipoproteinämien, sondern auch gewisse.sekundäre Hyperlipidämien wie sie z.B. beim Diabtes vorkommen.
`CCOC(=O)C(C)(C)Oc1ccc(Cl)cc1` [Clofibrat, reference compound]: the “relatives Lebergewicht” value is given as “starken Erhöhung des relativen Lebergewichts”.
